target: T1, human PTH1 receptor (Homo sapiens, UniProt Q03431); assay: In vitro cAMP signal activity in HKRK-B7 cells (LLC-PK1 cells overexpressing the human PTH1 receptor); assay type: cell-based; conditions: HKRK-B7 cells; compound at 1×10^−3 M; cAMP produced as percentage of that produced by hPTH(1-34) at 100 nM
T1 sequence (Q03431 27-593): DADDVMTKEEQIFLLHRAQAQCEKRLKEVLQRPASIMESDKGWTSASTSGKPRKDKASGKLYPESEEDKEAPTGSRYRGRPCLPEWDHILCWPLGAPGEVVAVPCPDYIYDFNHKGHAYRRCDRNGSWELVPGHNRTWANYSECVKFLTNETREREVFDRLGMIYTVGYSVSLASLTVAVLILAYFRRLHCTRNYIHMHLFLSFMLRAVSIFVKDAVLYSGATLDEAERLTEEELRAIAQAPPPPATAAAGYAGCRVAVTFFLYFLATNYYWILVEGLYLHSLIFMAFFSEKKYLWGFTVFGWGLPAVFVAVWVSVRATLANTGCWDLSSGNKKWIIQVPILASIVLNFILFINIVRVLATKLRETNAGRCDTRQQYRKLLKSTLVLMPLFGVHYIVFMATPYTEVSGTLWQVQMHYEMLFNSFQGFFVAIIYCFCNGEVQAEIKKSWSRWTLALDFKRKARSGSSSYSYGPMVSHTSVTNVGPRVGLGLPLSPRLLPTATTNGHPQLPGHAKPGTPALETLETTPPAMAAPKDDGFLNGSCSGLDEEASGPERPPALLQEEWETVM

Row | Compound | cAMP production activity (%)
1 | [2H]C([2H])([2H])C([2H])([2H])C([2H])([2H])C([2H])([2H])Oc1cc(C2=NC3(CCN(S(=O)(=O)/C=C/c4c(C)cc(C(=O)N5CCC(C)(O)CC5)cc4C)CC3)C(=O)N2)ccc1F [Compound 1211, 2-(3-[1,1,2,2,3,3,4,4,4-^2H9]butoxy-4-fluoro-phenyl)-8-{(E)-2-[4-(4-hydroxy-4-methyl-piperidine-1-carbonyl)-2,6-dimethyl-phenyl]-ethenesulfonyl}-1,3,8-triaza-spiro[4.5]dec-1-en-4-one] | 99
2 | Cc1cc(C(=O)N2CCC(C)(O)CC2)cc(C)c1/C=C/S(=O)(=O)N1CCC2(CC1)N=C(c1ccc3c(c1)OC(F)(F)C(F)(F)O3)NC2=O [Compound 1212, 8-{(E)-2-[4-(4-hydroxy-4-methyl-piperidine-1-carbonyl)-2,6-dimethyl-phenyl]-ethenesulfonyl}-2-(2,2,3,3-tetrafluoro-2,3-dihydro-benzo[1,4]dioxin-6-yl)-1,3,8-triaza-spiro[4.5]dec-1-en-4-one] | 96
3 | Cc1cc(C(=O)N2CCC(C)(O)CC2)cc(C)c1/C=C/S(=O)(=O)N1CCC2(CC1)N=C(c1ccc(OC(F)(F)C(F)F)cc1)NC2=O [Compound 1213, 8-{(E)-2-[4-(4-hydroxy-4-methyl-piperidine-1-carbonyl)-2,6-dimethyl-phenyl]-ethenesulfonyl}-2-[4-(1,1,2,2-tetrafluoro-ethoxy)-phenyl]-1,3,8-triaza-spiro[4.5]dec-1-en-4-one] | 80
4 | Cc1cc(C2=NC3(CCN(S(=O)(=O)/C=C/c4c(C)cc(C(=O)N5CCC(C)(O)CC5)cc4C)CC3)C(=O)N2)ccc1OC(F)(F)F [Compound 1214, 8-{(E)-2-[4-(4-hydroxy-4-methyl-piperidine-1-carbonyl)-2,6-dimethyl-phenyl]-ethenesulfonyl}-2-(3-methyl-4-trifluoromethoxy-phenyl)-1,3,8-triaza-spiro[4.5]dec-1-en-4-one] | 79
5 | Cc1cc(C(=O)N2CCC(C)(O)CC2)cc(C)c1/C=C/S(=O)(=O)N1CCC2(CC1)N=C(c1ccc(F)c(OCCCF)c1)NC2=O [Compound 1215, 2-[4-fluoro-3-(3-fluoro-propoxy)-phenyl]-8-{(E)-2-[4-(4-hydroxy-4-methyl-piperidine-1-carbonyl)-2,6-dimethyl-phenyl}-ethenesulfonyl]-1,3,8-triaza-spiro[4.5]dec-1-en-4-one] | 74
6 | Cc1cc(C(=O)N2CCC(C)(O)CC2)cc(C)c1/C=C/S(=O)(=O)N1CCC2(CC1)N=C(c1ccc(OCC(F)(F)F)c(Cl)c1)NC2=O [Compound 1216, 2-[3-chloro-4-(2,2,2-trifluoro-ethoxy)-phenyl]-8-{(E)-2-[4-(4-hydroxy-4-methyl-piperidine-1-carbonyl)-2,6-dimethyl-phenyl]-ethenesulfonyl}-1,3,8-triaza-spiro[4.5]dec-1-en-4-one] | 61
7 | Cc1cc(C(=O)N2CCC(C)(O)CC2)cc(C)c1/C=C/S(=O)(=O)N1CCC2(CC1)N=C(c1ccc(F)c(C(F)F)c1)NC2=O [Compound 1217, 2-(3-difluoromethyl-4-fluoro-phenyl)-8-{(E)-2-[4-(4-hydroxy-4-methyl-piperidine-1-carbonyl)-2,6-dimethyl-phenyl]-ethenesulfonyl}-1,3,8-triaza-spiro[4.5]dec-1-en-4-one] | 68
8 | Cc1cc(C(=O)N2CCC(C)(O)CC2)cc(C)c1/C=C/S(=O)(=O)N1CCC2(CC1)N=C(c1ccc(F)c(OCCCC(F)(F)F)c1)NC2=O [Compound 1218, 2-[4-fluoro-3-(4,4,4-trifluoro-butoxy)-phenyl]-8-{(E)-2-[4-(4-hydroxy-4-methyl-piperidine-1-carbonyl)-2,6-dimethyl-phenyl]-ethenesulfonyl}-1,3,8-triaza-spiro[4.5]dec-1-en-4-one] | 90
9 | Cc1cc(C(=O)N2CCC(C)(O)CC2)cc(C)c1/C=C/S(=O)(=O)N1CCC2(CC1)N=C(c1ccc(C(F)F)c(F)c1)NC2=O [Compound 1219, 2-(4-difluoromethyl-3-fluoro-phenyl)-8-{(E)-2-[4-(4-hydroxy-4-methyl-piperidine-1-carbonyl)-2,6-dimethyl-phenyl]-ethenesulfonyl}-1,3,8-triaza-spiro[4.5]dec-1-en-4-one] | 67
10 | [2H]C([2H])([2H])C([2H])([2H])C([2H])([2H])C([2H])([2H])Oc1ccc(C2=NC3(CCN(S(=O)(=O)/C=C/c4c(C)cc(C(=O)N5CCC(C)(O)CC5)cc4C)CC3)C(=O)N2)cc1C(F)(F)F [Compound 1220, 2-(4-[1,1,2,2,3,3,4,4,4-^2H9]butoxy-3-trifluoromethyl-phenyl)-8-{(E)-2-[4-(4-hydroxy-4-methyl-piperidine-1-carbonyl)-2,6-dimethyl-phenyl]-ethenesulfonyl}-1,3,8-triaza-spiro[4.5]dec-1-en-4-one] | 80
11 | [2H]C([2H])([2H])C([2H])([2H])Oc1ccc(C2=NC3(CCN(S(=O)(=O)/C=C/c4c(C)cc(C(=O)N5CCC(C)(O)CC5)cc4C)CC3)C(=O)N2)cc1C(F)(F)F [Compound 1221, 2-(4-[1,1,2,2,2-^2H5]ethoxy-3-trifluoromethyl-phenyl)-8-{(E)-2-[4-(4-hydroxy-4-methyl-piperidine-1-carbonyl)-2,6-dimethyl-phenyl]-ethenesulfonyl}-1,3,8-triaza-spiro[4.5]dec-1-en-4-one] | 75
12 | [2H]C([2H])([2H])C([2H])(Oc1ccc(C2=NC3(CCN(S(=O)(=O)/C=C/c4c(C)cc(C(=O)N5CCC(C)(O)CC5)cc4C)CC3)C(=O)N2)cc1C(F)(F)F)C([2H])([2H])[2H] [Compound 1222, 8-{(E)-2-[4-(4-hydroxy-4-methyl-piperidine-1-carbonyl)-2,6-dimethyl-phenyl]-ethenesulfonyl}-2-(4-[1,2,2,2,2,2,2-^2H7]isopropoxy-3-trifluoromethyl-phenyl)-1,3,8-triaza-spiro[4.5]dec-1-en-4-one] | 77
13 | Cc1cc(C(=O)N2CCC(C)(O)CC2)cc(C)c1/C=C/S(=O)(=O)N1CCC2(CC1)N=C(c1ccc(C(F)(F)F)c(OCC(F)(F)C(F)F)c1)NC2=O [Compound 1223, 8-{(E)-2-[4-(4-hydroxy-4-methyl-piperidine-1-carbonyl)-2,6-dimethyl-phenyl]-ethenesulfonyl}-2-[3-(2,2,3,3-tetrafluoro-propoxy)-4-trifluoromethyl-phenyl]-1,3,8-triaza-spiro[4.5]dec-1-en-4-one] | 54
14 | [2H]C([2H])([2H])C([2H])([2H])Oc1cc(C2=NC3(CCN(S(=O)(=O)/C=C/c4c(C)cc(C(=O)N5CCC(C)(O)CC5)cc4C)CC3)C(=O)N2)ccc1F [Compound 1224, 2-(3-[1,1,2,2,2-^2H5]ethoxy-4-fluoro-phenyl)-8-{(E)-2-[4-(4-hydroxy-4-methyl-piperidine-1-carbonyl)-2,6-dimethyl-phenyl]-ethenesulfonyl}-1,3,8-triaza-spiro[4.5]dec-1-en-4-one] | 88
15 | [2H]C([2H])([2H])C([2H])(Oc1cc(C2=NC3(CCN(S(=O)(=O)/C=C/c4c(C)cc(C(=O)N5CCC(C)(O)CC5)cc4C)CC3)C(=O)N2)ccc1F)C([2H])([2H])[2H] [Compound 1225, 2-(4-fluoro-3-[1,2,2,2,2,2,2-^2H7]isopropoxy-phenyl)-8-{(E)-2-[4-(4-hydroxy-4-methyl-piperidine-1-carbonyl)-2,6-dimethyl-phenyl]-ethenesulfonyl}-1,3,8-triaza-spiro[4.5]dec-1-en-4-one] | 90
16 | Cc1cc(C(=O)N2CCC(C)(O)CC2)cc(C)c1/C=C/S(=O)(=O)N1CCC2(CC1)N=C(c1cc(OCC(F)(F)C(F)F)cc(C(F)(F)F)c1)NC2=O [Compound 1226, 8-{(E)-2-[4-(4-hydroxy-4-methyl-piperidine-1-carbonyl)-2,6-dimethyl-phenyl]-ethenesulfonyl}-2-[3-(2,2,3,3-tetrafluoro-propoxy)-5-trifluoromethyl-phenyl]-1,3,8-triaza-spiro[4.5]dec-1-en-4-one] | 51
17 | Cc1cc(C(=O)N2CCC(C)(O)CC2)cc(C)c1/C=C/S(=O)(=O)N1CCC2(CC1)N=C(c1ccc(Cl)c(OCCCC(F)(F)F)c1)NC2=O [Compound 1227, 2-[4-chloro-3-(4,4,4-trifluoro-butoxy)-phenyl]-8-{(E)-2-[4-(4-hydroxy-4-methyl-piperidine-1-carbonyl)-2,6-dimethyl-phenyl]-ethenesulfonyl}-1,3,8-triaza-spiro[4.5]dec-1-en-4-one] | 77
18 | Cc1cc(C(=O)N2CCC(C)(O)CC2)cc(C)c1/C=C/S(=O)(=O)N1CCC2(CC1)N=C(c1ccc(C(F)(F)F)c(OCC(F)(F)C(F)(F)F)c1)NC2=O [Compound 1228, 8-{(E)-2-[4-(4-hydroxy-4-methyl-piperidine-1-carbonyl)-2,6-dimethyl-phenyl]-ethenesulfonyl}-2-[3-(2,2,3,3,3-pentafluoro-propoxy)-4-trifluoromethyl-phenyl]-1,3,8-triaza-spiro[4.5]dec-1-en-4-one] | 68
